The record followed here is PMC4084896 (PLoS ONE, 2014).

Like-named read-outs stand apart in the source and are kept apart here. Bounds are passed on as bounds.

In series [1] the test system is tyrosine aminotransferase (TAT) mRNA. The series can be described thus: TAT mRNA in HepG2 cells (qRT-PCR). The class given is cell-based, human. The conditions noted are these: HepG2, 1, 30, 50 µM, 24 h. (In general: In qPCR the cycle at which signal appears reflects the starting amount.)
Series [2] concerns AZ-GR cells. As to the kind of experiment: MTT cytotoxicity test in AZ-GR cells. The class given is cell-based, human. Particulars: 24 h incubation, read-out: AZ-GR viability - MTT IC50. An excerpt:
(§1) A stably transfected gene reporter cell line AZ-AHR, derived from human hepatoma HepG2 cells transfected with a construct containing several AhR binding sites upstream of a luciferase reporter gene, was used for assessment of AhR transcriptional activity. A stably transfected gene reporter cell line AZ-GR, derived from human cervix carcinoma HeLa cells transfected with a construct containing several GR response elements upstream of a luciferase reporter gene, was used for assessment of GR transcriptional activity. Cells were incubated for 24 h with tested compounds and/or vehicle (DMSO; 0.1% v/v), in the presence or absence of TCDD (5 nM; AZ-AHR cells) or DEX (100 nM; AZ-GR cells). After the treatments, cells were lysed and luciferase activity was measured. In parallel, cell viability was determined by conventional MTT test.
(§2) There is multiple evidence for the role of glucocorticoid receptor (GR) in regulation of AhR activity. […] Gene reporter assays were performed in agonist and antagonist mode (similarly as described in section 3.1.).
(Tetrazolium dyes change colour on reduction, which living cells bring about.)

Series [3] addresses T1, glucocorticoid receptor (GR) (Homo sapiens, UniProt P04150).
T1 sequence (P04150 1-777): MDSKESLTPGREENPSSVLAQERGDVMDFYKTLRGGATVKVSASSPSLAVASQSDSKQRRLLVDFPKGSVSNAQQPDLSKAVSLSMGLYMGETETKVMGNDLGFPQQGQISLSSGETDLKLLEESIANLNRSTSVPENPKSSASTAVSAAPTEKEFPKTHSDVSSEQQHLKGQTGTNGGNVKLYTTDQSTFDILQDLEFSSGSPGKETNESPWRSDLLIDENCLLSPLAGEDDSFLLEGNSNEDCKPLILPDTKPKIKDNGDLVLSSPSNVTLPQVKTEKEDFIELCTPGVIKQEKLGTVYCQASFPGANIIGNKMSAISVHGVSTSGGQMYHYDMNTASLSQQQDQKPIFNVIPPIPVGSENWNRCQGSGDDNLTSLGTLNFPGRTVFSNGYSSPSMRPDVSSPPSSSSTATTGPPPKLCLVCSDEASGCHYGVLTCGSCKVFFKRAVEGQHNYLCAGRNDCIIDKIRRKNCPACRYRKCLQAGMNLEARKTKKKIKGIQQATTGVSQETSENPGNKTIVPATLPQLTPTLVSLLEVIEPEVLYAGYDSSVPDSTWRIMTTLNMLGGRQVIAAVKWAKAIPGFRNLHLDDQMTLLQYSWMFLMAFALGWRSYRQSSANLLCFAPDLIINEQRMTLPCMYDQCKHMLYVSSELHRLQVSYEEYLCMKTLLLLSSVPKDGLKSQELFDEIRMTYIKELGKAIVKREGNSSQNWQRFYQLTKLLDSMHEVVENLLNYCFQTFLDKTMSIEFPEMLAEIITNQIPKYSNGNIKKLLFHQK
The series can be described thus: GR gene reporter assay in AZ-GR cells, agonist mode. The class given is cell-based. Particulars: up to / at 100 µM, 24 h.
Excerpt: as §1, §2
In general terms: In a reporter assay the amount or activity of a reporter protein is the signal.

For series [4], the target named is T1, glucocorticoid receptor (GR). The series can be described thus: GR gene reporter assay in AZ-GR cells, antagonist mode (DEX 100 nM). The class given is cell-based. Particulars: 24 h; for IC50: in the presence of DEX 100 nM.
Excerpt: as §1, §2

Series [5] has as its target T2, aryl hydrocarbon receptor AhR (Homo sapiens, UniProt P35869).
T2 construct: endogenous in cells; host or cells: AZ-AHR (stably transfected reporter line derived from HepG2)
T2 sequence (P35869 11-848): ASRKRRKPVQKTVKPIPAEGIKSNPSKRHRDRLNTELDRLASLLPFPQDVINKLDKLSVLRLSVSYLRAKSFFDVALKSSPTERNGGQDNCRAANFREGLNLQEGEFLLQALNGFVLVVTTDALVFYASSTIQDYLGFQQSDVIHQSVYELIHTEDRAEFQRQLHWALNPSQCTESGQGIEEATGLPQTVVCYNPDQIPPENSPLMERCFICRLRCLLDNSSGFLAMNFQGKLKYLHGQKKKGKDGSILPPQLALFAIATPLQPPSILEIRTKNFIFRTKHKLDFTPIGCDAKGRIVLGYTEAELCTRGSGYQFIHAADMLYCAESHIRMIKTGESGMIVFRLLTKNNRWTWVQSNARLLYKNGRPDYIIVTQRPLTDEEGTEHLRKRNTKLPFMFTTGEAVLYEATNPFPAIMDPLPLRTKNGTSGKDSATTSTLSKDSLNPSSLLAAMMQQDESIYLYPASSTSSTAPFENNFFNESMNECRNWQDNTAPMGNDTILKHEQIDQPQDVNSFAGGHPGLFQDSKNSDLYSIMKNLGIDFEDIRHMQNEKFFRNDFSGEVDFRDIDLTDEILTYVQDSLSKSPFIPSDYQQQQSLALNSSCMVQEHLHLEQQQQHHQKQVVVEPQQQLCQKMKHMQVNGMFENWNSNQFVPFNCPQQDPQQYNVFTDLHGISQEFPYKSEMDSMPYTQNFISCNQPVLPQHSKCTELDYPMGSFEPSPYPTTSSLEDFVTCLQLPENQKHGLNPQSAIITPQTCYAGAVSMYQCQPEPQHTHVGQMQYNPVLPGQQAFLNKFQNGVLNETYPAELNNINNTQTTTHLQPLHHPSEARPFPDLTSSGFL
As to the kind of experiment: AhR gene reporter assay in AZ-AHR cells, agonist mode. The class given is cell-based. Particulars: for EC50: 24 h, agonist mode.
Excerpt: as §1
(§3) Gene reporter assays were performed in two different experimental layouts. In agonist mode, cells were treated with increasing concentrations of tested compounds, and the half-maximal effective concentrations (EC50) were calculated.

The target in series [6] is T2, aryl hydrocarbon receptor AhR. The series can be described thus: AhR gene reporter assay in AZ-AHR cells, antagonist mode (TCDD 5 nM). The class given is cell-based. Particulars: 24 h, in the presence of TCDD 5 nM.
Excerpt: as §1, §3

For `CC(=O)N1CCN(c2ccc(OC[C@H]3CO[C@](Cn4ccnc4)(c4ccc(Cl)cc4Cl)O3)cc2)CC1` [(+)-KET, (2R,4S)-(+)-KET], the “TAT mRNA induction (in words)” value in series [1] is on record as “strong, concentration-dependent induction”. For the same compound, the half-inhibitory concentration (IC50) (commonly the concentration needed to halve the response being measured) in series [2] came to 82.6 ± 23.7 µM; in series [4], 29.6 ± 0.9 µM; in series [6], 22.3 ± 6.3 µM. In addition, the “increase of luciferase activity, agonist mode” value in series [3] is recorded as “did not induce luciferase activity”. Moreover, the midpoint of the response in series [5], the EC50, lay at 3.2 µM. For the same compound, the “AZ-AHR gene reporter - agonist efficacy” value in series [5] (average value printed in Figure 1B, relative to TCDD) is recorded as 23,5 ± 12,2%.
Consider `CC(=O)N1CCN(c2ccc(OCC3COC(Cn4ccnc4)(c4ccc(Cl)cc4Cl)O3)cc2)CC1` (racemic) [rac-KET, ketoconazole], for which the “TAT mRNA induction (in words)” value in series [1] is on record as “strong, concentration-dependent induction”. The IC50 is over 100 µM in series [2] (Homo sapiens), over 100 µM in series [4] and 31.1 ± 3.7 µM in series [6]. Moreover, the “increase of luciferase activity, agonist mode” value in series [3] is “approximately 5 fold”. Also, the “inhibition of DEX-induced luciferase activity (in words)” value in series [4] (DEX 100 nM) is “only weak inhibition”. For the same compound, in series [5], the “AZ-AHR gene reporter - agonist efficacy” value is reported as 15,4 ± 9,4%. In addition, in series [5], the EC50 (commonly the concentration needed to bring the measured effect to its halfway point) stood at 5.2 µM.
